This note sets out measurements from patent US9596854B2, “Fungicidal penflufen mixtures” (priority 2010, dated 2017).

Read-outs that look alike come from different tables or passages of the source.

Common to all, as to test: Synergism test: MIC of radial hyphae growth on malt extract/peptone agar, SI by Kull
What all share (assay type): cell-based

The test system of one assay is Coriolus versicolor. To be noted: for MIC: Trametes versicolor.
The test system of a further assay is Gloeophyllum trabeum.
For a further assay, the system named is Poria placenta. The conditions noted are these: nutrient agar, 26° C.
The test system of a further assay is Coniophora puteana. The conditions noted are these: Example 8, penflufen/boron oxide, nutrient agar, 26° C.
The test system of the next assay is Stereum sanguinolentum. To be noted: nutrient agar, 26° C.
[1] abbreviates: Example 3, penflufen/Lonzabac, nutrient agar, 26° C, read-out: MIC against Coriolus versicolor.
Setting [2] is: Example 1, penflufen/IPBC, nutrient agar, 26° C, complete suppression of radial hyphae growth, read-out: MIC against Gloeophyllum trabeum.
Where [3] appears, read: Example 9, penflufen/boric acid, nutrient agar, 26° C, read-out: MIC Gloeophyllum trabeum.
[4] abbreviates: Example 4, penflufen/DDAC, read-out: MIC Poria placenta.
[5] abbreviates: Example 5, penflufen/DDA propionate.

Consider `CCCCCCCCCCCCN(CCCN)CCCN` [Lonzabac, N-(3-aminopropyl)-N-dodecyl-1,3-propanediamine], for which, in the assay on Coriolus versicolor (setting [1]), the MIC was found to be 30 µg/mL.

In the case of `CCCCNC(=O)OCC#CI` [IPBC, 3-Iodo-2-propynyl N-butylcarbamate], the MIC in the assay with Gloeophyllum trabeum (setting [2]) was 10 µg/mL.

In the case of benzalkonium chloride, the “MIC against Poria placenta” value in the assay on Poria placenta (Example 6, penflufen/benzalkonium chloride) is recorded as 100.0 ppm.

Regarding `Cc1nn(C)c(F)c1C(=O)Nc1ccccc1C(C)CC(C)C` (stereo not drawn) [penflufen], the MIC in the assay on Gloeophyllum trabeum (setting [2]) was 0.3 µg/mL; in the assay with Gloeophyllum trabeum (setting [3]), 0.3 µg/mL; in the assay with Gloeophyllum trabeum (Example 11, penflufen/o-phenylphenol, nutrient agar, 26° C, read-out: MIC against Gloeophyllum trabeum), 0.7 µg/mL; with Coriolus versicolor (setting [1]) it was 0.5 µg/mL; in the assay with Coriolus versicolor (Example 4, penflufen/DDAC, nutrient agar, 26° C, read-out: MIC Coriolus versicolor), 0.1 µg/mL; in the assay on Poria placenta (Example 2, penflufen/DCOIT, read-out: MIC against Poria placenta), 0.3 µg/mL. The MIC in the assay on Poria placenta (setting [4]) was 0.1 µg/mL; with Poria placenta (Example 5, penflufen/DDA propionate, read-out: MIC Poria placenta), 0.3 µg/mL; with Poria placenta (Example 6, penflufen/benzalkonium chloride, read-out: MIC against Poria placenta), 0.3 µg/mL; in the assay with Poria placenta (Example 7, penflufen/Carboquat, read-out: MIC Poria placenta), 0.3 µg/mL; in the assay with Poria placenta (Example 10, penflufen/sodium borate, read-out: MIC against Poria placenta) it was 0.3 µg/mL; in the assay with Coniophora puteana (Coniophora puteana, read-out: MIC against Coniophora puteana) it was 0.7 µg/mL. Moreover, in the assay on Stereum sanguinolentum (Stereum sanguinolentum, Example 5, penflufen/DDA propionate), the MIC was determined as 3 µg/mL. Moreover, the “MIC Coriolus versicolor” value with Coriolus versicolor (Example 9, penflufen/boric acid, nutrient agar, 26° C) worked out at 0.1 ppm. In the assay on Stereum sanguinolentum (Example 7, penflufen/Carboquat), the “MIC Stereum sanguinolentum” value worked out at 3.0 ppm.

Turning to boron oxide, the “MIC against Coniophora puteana” value in the assay on Coniophora puteana was found to be 100 ppm.

For `CCCCCCCCCC[N+](C)(C)CCCCCCCCCC.[Cl-]` [DDAC, Didecyldimethylammonium Chloride], the MIC with Coriolus versicolor (read-out: MIC Coriolus versicolor) was 60 µg/mL; in the assay with Poria placenta (setting [4]), 100 µg/mL.

On to “didecylmethylpoly(oxyethyl)ammonium Propionate [DDA propionate]”, for which, in the assay with Poria placenta (setting [5]), the “MIC Poria placenta” value is listed as 100.0 ppm. Moreover, the “MIC Stereum sanguinolentum” value in the assay on Stereum sanguinolentum (setting [5]) was found to be 30.0 ppm.

`OB(O)O` [boric acid]: the MIC is 100 µg/mL in the assay with Gloeophyllum trabeum (setting [3]) and 100 µg/mL in the assay on Coriolus versicolor (Example 9, penflufen/boric acid, nutrient agar, 26° C, read-out: MIC Coriolus versicolor).

For the molecule `Oc1ccccc1-c1ccccc1` [o-phenylphenol], the MIC with Gloeophyllum trabeum (read-out: MIC against Gloeophyllum trabeum) was determined as 60 µg/mL.

With `O.O.O.O.O.O.O.O.O.O.[Na+].[Na+].[O-]B1OB2OB([O-])OB(O1)O2` [sodium borate], the “MIC against Poria placenta” value in the assay with Poria placenta (Example 10, penflufen/sodium borate) was 100.0 ppm.
